Results on five compounds are retold here after US9073926B2, “Heterocyclic compounds containing a pyrrolopyridine or benzimidazole core” (Boehringer Ingelheim International GmbH, priority 2009, dated 2015).

For one assay, the target named is Human RSK2 (Homo sapiens (Human), UniProt P51812). Briefly: Human RSK2 Assay (Kinase Glo Plus, residual ATP). The assay is classed as biochemical. The settings on record: 0.75 nM His-RSK2, 0.75 μM ATP, 1.0 μM S6 Kinase/RSK Substrate Peptide 1. Summed up: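 His-RSK2 (0.75 nM) with 0.75 μM ATP and 1.0 μM S6 kinase/RSK substrate peptide in HEPES pH 7.5 buffer with Mg/Mn, 90 min at 28° C. Residual ATP read by Kinase Glo Plus luminescence; percent of control fitted to a 4-parameter logistic, IC50 taken as inflection point.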
In general terms: Kinase-Glo reads ATP consumption through a luciferase reaction.

A further assay relates to NHE1. The settings on record: Cuello et al., Mol Pharmacol 71:799-806, 2007; cited from earlier work.

Chain of Human RSK2 (P51812 whole entry): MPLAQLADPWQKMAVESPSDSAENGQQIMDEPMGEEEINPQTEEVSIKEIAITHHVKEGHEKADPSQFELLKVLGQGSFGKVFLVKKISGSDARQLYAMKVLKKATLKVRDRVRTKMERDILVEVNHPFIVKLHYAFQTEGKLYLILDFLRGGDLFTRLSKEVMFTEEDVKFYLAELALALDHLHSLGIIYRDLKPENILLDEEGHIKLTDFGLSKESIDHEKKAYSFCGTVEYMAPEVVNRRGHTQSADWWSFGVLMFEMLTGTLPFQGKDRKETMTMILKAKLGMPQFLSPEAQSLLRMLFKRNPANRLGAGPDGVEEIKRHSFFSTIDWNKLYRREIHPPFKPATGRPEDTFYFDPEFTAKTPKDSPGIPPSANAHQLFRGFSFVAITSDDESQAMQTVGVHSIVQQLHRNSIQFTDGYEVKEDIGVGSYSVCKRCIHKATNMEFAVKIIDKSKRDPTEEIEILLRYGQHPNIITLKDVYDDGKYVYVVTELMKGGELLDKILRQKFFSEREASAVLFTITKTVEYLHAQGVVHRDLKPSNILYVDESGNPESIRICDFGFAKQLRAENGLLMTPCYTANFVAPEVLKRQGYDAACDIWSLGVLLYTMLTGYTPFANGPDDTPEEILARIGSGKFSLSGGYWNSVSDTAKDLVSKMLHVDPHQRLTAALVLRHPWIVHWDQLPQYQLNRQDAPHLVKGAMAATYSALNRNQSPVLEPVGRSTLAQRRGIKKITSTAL

The term IC50 denotes the midpoint of a concentration-inhibition curve. As to `CC1CNC(=O)c2cc3ccc(C(=O)Nc4cccnc4)nc3n21` (stereo not drawn) [Example 101, 9-methyl-6-oxo-N-(pyridin-3-yl)-6,7,8,9-tetrahydropyrido[3′,2′:4,5]pyrrolo[1,2-a]pyrazine-2-carboxamide], the IC50 at Human RSK2 is 0.12 µM. Take `CNC(=O)c1csc(NC(=O)c2ccc3cc4n(c3n2)C(C)CNC4=O)n1` (stereo not drawn) [Example 102, 9-methyl-N-[4-(methylcarbamoyl)-1,3-thiazol-2-yl]-6-oxo-6,7,8,9-tetrahydropyrido[3′,2′:4,5]pyrrolo[1,2-a]pyrazine-2-carboxamide]: the IC50 on Human RSK2 worked out at 0.13 µM. Still for that read-out and setting: then `CC1CNC(=O)c2cc3ccc(C(=O)Nc4nccs4)nc3n21` (stereo not drawn) [Example 103, 9-methyl-6-oxo-N-(1,3-thiazol-2-yl)-6,7,8,9-tetrahydropyrido[3′,2′:4,5]pyrrolo[1,2-a]pyrazine-2-carboxamide], with 0.33 µM; and `Cn1cc(NC(=O)c2ccc3cc4n(c3n2)CCCNC4=O)nc1C(=O)NC1CCCC1` [Example 104, N-[2-(cyclopentylcarbamoyl)-1-methyl-1H-imidazol-4-yl]-6-oxo-7,8,9,10-tetrahydro-6H-pyrido[3′,2′:4,5]pyrrolo[1,2-a][1,4]diazepine-2-carboxamide], with 0.0016 µM.

Regarding `Cc1ccc(-c2c(C(=O)CF)n(CCCO)c3ncnc(N)c23)cc1` [fmk], in the assay on NHE1, the “basal NHE1 activity” value is “without affecting basal activity”; the “phosphorylation of NHE1 and phenylephrine-induced enhanced NHE1 activity” value is listed as “inhibit phosphorylation of NHE1”.
